In PMC7807051, “Modulation of cAMP metabolism for CFTR potentiation in human airway epithelial cells” (Scientific Reports, 2021):

Assays:
CFTR = test: In vitro CFTR membrane potential assay in Calu-3 cells; assay type: cell-based, human; details: Calu-3
Method: An in vitro CFTR membrane potential assay was performed on Calu-3 cells and primary human bronchial epithelial cells, from two independent donors, cultured at 37 °C as previously described. All human samples were collected from consented individuals under ethics approval granted by Hamilton Integrated Research Ethics Board (Project Number 5099-T).
Calu-3 cells were grown for 21 days on 96-well plates and primary HBECs were grown for 14 days under air–liquid interface conditions on collagen-coated (Sigma-Aldrich) 6.5 mm Transwell Inserts (Corning). All cells were washed with HBSS prior to experimental conditions. After washing with HBSS, cells were loaded with BLUE Membrane Potential Dye (Molecular Devices, #R8042) dissolved in 37 °C chloride-free buffer (NMDG Gluconate Buffer – 150 mM NMDG-gluconate, 3 mM KCl, 10 mM HEPES, pH 7.35, 300 mOsm). Immediately after dye loading, CFTR activity measurements were taken. CFTR activity measurements are fluorescent readouts for detecting ion channel activity. CFTR inhibition was performed with CFTRinh-172 (10 μM) for all experiments to attribute changes in fluorescence as CFTR channel activity. This assay has been validated using proof of concept studies where results obtained from this assay were able to recapitulate findings obtained from direct measurements of ion channel activity using Ussing chambers. At the end of this assay, raw data was exported for statistical analysis.
For Calu-3 cells, measurements were taken during baseline (40 min), cAMP elevation (30 min), and CFTR inhibition (20 min). cAMP elevation was performed using forskolin or isoproterenol (0.0005–50 μM). For assays with ABCC4 or PDE-4 inhibitors, a pre-incubation with the inhibitors (30 min) in the plate reader was performed prior to cAMP elevation. CFTR modulator VX-770 was used at 1 μM. CFTR activity was determined by dividing a single membrane potential peak measurement after the ABCC4 or PDE-4 inhibition and cAMP elevation additions to the stabilized baseline over DMSO control.
For in vitro CFTR membrane potential assays, in Calu-3 cells, values were normalized to the averaged baseline over averaged vehicle (DMSO) control of all biological replicates. SD was calculated using data from biological replicates (n = 4–8). An area under the curve (AUC), half-maximal concentration (EC50), […] (Emax), and baseline analysis was performed for each individual replicate then averaged together. The AUC analysis is an aggregate measure of sensitivity and maximal response, allowing for the observation of the total net responsiveness of the cells. The AUC analysis was done by normalizing the individual replicates to the bottom most value of the averaged vehicle control. In primary HBECs, six independent measurements were taken within a single Transwell insert. The value is the average of at least six measurements. These values were normalized to the averaged baseline over the averaged vehicle (DMSO) control. SD was calculated by treating the six measurements as independent, with additional technical replicates (n = 6–18). An AUC and max peak analysis were performed for each measurement, then averaged together. The max peak analysis was the max CFTR activity achieved during the drug addition step.
In order to compare the independent experiments performed, a fold-change analysis using individual AUC, EC50, and Emax, determined from their respective concentration–response curves, was performed and was normalized to the averaged DMSO vehicle control. A one-way ANOVA with subsequent post-hoc test or a paired t-test was performed. Statistical analysis was performed using GraphPad Prism 6.

G551D-CFTR = tested on: G551D-CFTR; design: method as in PMID 21083385, PMID 22047557; details: G551D-CFTR variants; various doses and treatment durations; cited from earlier work
[1] = forskolin (FSK) curve with agent vs DMSO control
[2] = isoproterenol (ISO) curve with agent vs DMSO control

- EC50 of concentration–response curve, CFTR activity (CFTR; [1]): increased the sensitivity
- EC50 of concentration–response curve, CFTR activity (CFTR; [2]): no changes
SMILES: CC(C)(C)c1cc(C(C)(C)C)c(NC(=O)c2c[nH]c3ccccc3c2=O)cc1O [VX-770, ivacaftor]
- Fold-change of AUC relative to vehicle control (CFTR; FSK stimulation, comparison across independent experiments): superior to either ABCC4 (MK-571) or PDE-4 (Roflumilast) inhibition alone
- Baseline of concentration–response curve, CFTR activity (CFTR; [1]): no significant changes
- Emax of concentration–response curve, CFTR activity (CFTR; [1]): remained unchanged
- AUC of concentration–response curve, CFTR activity (CFTR; forskolin (FSK) curve with agent vs DMSO control, VX-770 1 μM, MK-571 1.8 μM, Ceefourin-1 4.8 μM, Roflumilast 1 μM, Rolipram 10 μM, IBMX 100 μM): significant increase
- Baseline of concentration–response curve, CFTR activity (CFTR; [2]): significant increase
- Emax of concentration–response curve, CFTR activity (CFTR; [2]): no changes
- AUC of concentration–response curve, CFTR activity (CFTR; isoproterenol (ISO) curve with agent vs DMSO control, same agent concentrations as E5): significant increase
- predicted forced expiratory volume in 1 s (FEV1) from baseline (G551D-CFTR): significant increases
